The values below come from patent US7038085B2, “Stereoisomers of p-hydroxy-milnacipran, and methods of use thereof” (Collegium Pharmaceutical, Inc., priority 2002, dated 2006).

Data set [1] is described as follows: Cytotoxicity, fluorometric assay run with the uptake assays (cat. 302100, 364100). The data set is classed as cell-based. The settings on record: at 10 μM. From the text:
• 118090. Crespi, C. L., Miller, V. P and Penman, B. W. (1997) Microtiter plate assays for inhibition of human, drug-metabolizing cytochromes P450. Anal Biochem 248(1): 188–190. • Gentest Technical Bulletin (Version 4.2: Revised 27 Sep. 2000) A high throughput method for measuring cytochrome P450 inhibition. Gentest Technical Bulletin (Version 4.2) Revised 27 Sep. 2000). • 204410. Galli, A., DeFelice, L., Duke, B.-J., Moore, K. Blakely, R. (1995) Sodium dependent norepinephrine induced currents in norephinephrine transporter transfected HEK293 cells blocked by cocaine and antidepressants. J. Exp. Biol. 198:2197–2212. • 212610. Eggerickx, D., Raspe, E. Bertrand, D., Vassart, G., Parmentier, M. (1992) Molecular cloning, functional expression and pharmacological characterization of a human bradykinin B2 receptor gene. Biochem Biophys Res Commun 187 (3): 1306–1313. • 214510. Schoemaker, H. and Langer, S. Z. (1985) [3H]Diltiazem binding to calcium channel antagonist recognition sites in rat cerebral cortex. Eur. J. Pharmacol. 111:273–277. • 274020. […] J. Biol. Chem. 269(10):7124–7130. • 302000. Galli, A., DeFelice, L. Duke, B.-J., and Blakely, R. (1995) Sodium dependent norephinephrine-induced currents in norepinephrine-transporter-transfected HEK-293 cells blocked by cocaine and antidepressants. J. Exp. Biol. 198:2197–2212. • 302100. Page, B., Page, M. and Noel, C. (1993) A new fluorometric assay for cytotoxicity measurements in vitro. […] 3:473–476, 1993. • 364000. […] J. Biol. Chem. […]:7124–7130. • 364100. Page, B., Page, M. and Noel, C. (1993) A new fluorometric assay for cytotoxicity measurements in vitro. Int. J. Oncology 3:473–476, 1993.

The test system of data set [2] is other receptors. The data set can be described thus: Radioligand binding assay panel, other receptors (FIGS. 32 and 33). Set-up: species or system human, mouse, guinea pig, syrian hamster, rat. Conditions: radioligand binding assays at 10 μM. How it is done:
(§1) The methods employed in this study have been adapted from the scientific literature to maximize reliability and reproducibility. Reference standards were run as an integral part of each assay to ensure the validity of the results obtained. Assays were performed under conditions as described below. Literature reference(s) for each assay are tabulated below and hereby incorporated by reference.

In data set [3] the target is T1, Norepinephrine Transporter (NET) (Homo sapiens, UniProt P23975). Kind of data set: Transporter, Norepinephrine (NET) radioligand binding (cat. 204410). The settings on record: for Ki: human recombinant MDCK cells, [125I] RTI-55, Ki by Cheng and Prusoff, read-out: Ki, displacement of radioligand from Norepinephrine Transporter binding sites. The procedure: as §1
(§2) Where presented, IC50 values were determined by a non-linear, least squares regression analysis using Data Analysis ToolboX™ (MDL Information Systems, San Leandro, Calif., USA). Where inhibition constants (Ki) are presented, the Ki values were calculated using the equation of Cheng and Prusoff(Cheng, Y., Prusoff, W. H., Biochem. Pharmacol. 22:30993108, 1973) using the observed IC50 of the tested compound, the concentration of radioligand employed in the assay, and the historical values for the Kd of the ligand (obtained experimentally at MDS Pharma Services). Where presented, the Hill coefficient (nH), defining the slope of the competitive binding curve, was calculated using Data Analysis Toolbox™. […] Where IC50, Ki, and/or nH data are presented without Standard Error of the Mean (SEM), data are insufficient to be quantitative, and the values presented (Ki, IC50, nH) should be interpreted with caution.
(§3) Where presented, IC50 values were determined by a non-linear, least squares regression analysis using Data Analysis Toolbox™ (MDL Information Systems, San Leandro, Calif., USA). Where inhibition constants (Ki) are presented, the Ki values were calculated using the equation of Cheng and Prusoff (Cheng, Y., Prusoff, W. H., Biochem. Pharmacol. 22:3099–3108, 1973) using the observed IC50 of the tested compound, the concentration of radioligand employed in the assay, and the historical values for the KD of the ligand (obtained experimentally at MDS Pharma Sarvices.

Data set [4] concerns the target T2, Serotonin Transporter (SERT) (Homo sapiens, UniProt P31645). Kind of data set: Transporter, Serotonin (5-Hydroxytryptamine) (SERT) radioligand binding (cat. 274020). The settings on record: for Ki: human recombinant HEK-293 cells, [125I] RTI-55, Ki by Cheng and Prusoff, read-out: Ki, displacement of radioligand from Serotonin Transporter binding sites. The procedure: as §1, §2, §3

Data set [5] has as its target Norepinephrine Uptake (Homo sapiens, UniProt P23975). Kind of data set: Inhibition of cellular Norepinephrine Uptake (cat. 302000). The format is cell-based. The settings on record: for IC50: cellular uptake, FIG. 61. The procedure: (§4) The methods employed have been adapted from the scientific literature to maximize reliability and reproducibility. Reference standards were run as an integral part of each assay to ensure the validity of the results obtained. Assays were performed under the conditions described below. The literature reference(s) for each assay are are listed below.
as §3

The target of data set [6] is Serotonin Uptake (Homo sapiens, UniProt P31645). Kind of data set: Inhibition of cellular Serotonin Uptake (cat. 364000). The data set is classed as cell-based. The settings on record: for IC50: cellular uptake, FIG. 61. How it is done:
as §4, §3

The target of data set [7] is uptake of dopamine (Homo sapiens, UniProt Q01959). The settings on record: cited from earlier work.
Data set [8] concerns beta adrenoceptors. Conditions: after chronic administration; Briley et al. 1996; cited from earlier work.
Data set [9] relates to alpha or beta adrenergic, muscarinic, histaminergic, and dopaminergic receptors. The settings on record: cited from earlier work.
Data set [10] has as its system norepinephrine (NE) and serotonin (5-HT) uptake. Conditions: Viazzo et al. 1996; Deprez et al. 1998; cited from earlier work.
Data set [11] concerns the target T1, Norepinephrine Transporter (NET). The settings on record: radioligand [125I] RTI-55; Human recombinant MDCK cells; historical value (*); cited from earlier work.
The target of data set [12] is T2, Serotonin Transporter (SERT). Conditions: radioligand [125I] RTI-55; Human recombinant HEK-293 cells; historical value (*); cited from earlier work.

Chain of Norepinephrine Uptake (P23975 whole entry): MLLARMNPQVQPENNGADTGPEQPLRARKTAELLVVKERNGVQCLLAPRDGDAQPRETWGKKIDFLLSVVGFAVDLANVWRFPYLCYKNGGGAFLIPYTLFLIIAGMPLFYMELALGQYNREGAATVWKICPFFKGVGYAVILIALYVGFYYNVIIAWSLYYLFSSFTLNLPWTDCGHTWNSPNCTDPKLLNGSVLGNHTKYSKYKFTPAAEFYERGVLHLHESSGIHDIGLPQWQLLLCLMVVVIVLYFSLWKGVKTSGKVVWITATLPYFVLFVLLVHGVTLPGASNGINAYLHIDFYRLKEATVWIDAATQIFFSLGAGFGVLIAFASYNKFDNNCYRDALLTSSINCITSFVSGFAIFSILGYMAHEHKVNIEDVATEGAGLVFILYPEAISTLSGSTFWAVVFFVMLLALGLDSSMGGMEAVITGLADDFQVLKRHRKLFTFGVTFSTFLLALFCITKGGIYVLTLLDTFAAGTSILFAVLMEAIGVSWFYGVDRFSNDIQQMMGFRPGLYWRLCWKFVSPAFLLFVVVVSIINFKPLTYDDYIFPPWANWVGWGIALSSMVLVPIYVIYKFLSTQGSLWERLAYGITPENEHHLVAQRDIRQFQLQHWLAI
T1 sequence (P23975 whole entry): as above
T2 sequence (P31645 whole entry): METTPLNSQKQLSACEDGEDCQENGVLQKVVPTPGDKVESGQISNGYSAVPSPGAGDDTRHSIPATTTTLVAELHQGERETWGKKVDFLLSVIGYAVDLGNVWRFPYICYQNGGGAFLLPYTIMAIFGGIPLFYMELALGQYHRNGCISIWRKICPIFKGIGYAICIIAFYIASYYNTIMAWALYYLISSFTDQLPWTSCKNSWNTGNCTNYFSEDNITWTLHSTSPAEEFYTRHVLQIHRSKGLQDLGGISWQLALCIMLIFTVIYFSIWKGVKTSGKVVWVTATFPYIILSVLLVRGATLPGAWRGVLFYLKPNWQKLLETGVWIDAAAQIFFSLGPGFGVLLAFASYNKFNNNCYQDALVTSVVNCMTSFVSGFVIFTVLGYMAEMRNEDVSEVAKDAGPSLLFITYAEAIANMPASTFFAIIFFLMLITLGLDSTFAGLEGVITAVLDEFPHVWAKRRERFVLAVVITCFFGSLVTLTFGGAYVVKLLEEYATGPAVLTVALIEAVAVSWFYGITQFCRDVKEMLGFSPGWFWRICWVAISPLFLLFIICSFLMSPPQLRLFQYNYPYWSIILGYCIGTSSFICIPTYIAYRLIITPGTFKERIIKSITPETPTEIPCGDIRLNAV
Chain of Serotonin Uptake (P31645 whole entry): as above
Chain of uptake of dopamine (Q01959 whole entry): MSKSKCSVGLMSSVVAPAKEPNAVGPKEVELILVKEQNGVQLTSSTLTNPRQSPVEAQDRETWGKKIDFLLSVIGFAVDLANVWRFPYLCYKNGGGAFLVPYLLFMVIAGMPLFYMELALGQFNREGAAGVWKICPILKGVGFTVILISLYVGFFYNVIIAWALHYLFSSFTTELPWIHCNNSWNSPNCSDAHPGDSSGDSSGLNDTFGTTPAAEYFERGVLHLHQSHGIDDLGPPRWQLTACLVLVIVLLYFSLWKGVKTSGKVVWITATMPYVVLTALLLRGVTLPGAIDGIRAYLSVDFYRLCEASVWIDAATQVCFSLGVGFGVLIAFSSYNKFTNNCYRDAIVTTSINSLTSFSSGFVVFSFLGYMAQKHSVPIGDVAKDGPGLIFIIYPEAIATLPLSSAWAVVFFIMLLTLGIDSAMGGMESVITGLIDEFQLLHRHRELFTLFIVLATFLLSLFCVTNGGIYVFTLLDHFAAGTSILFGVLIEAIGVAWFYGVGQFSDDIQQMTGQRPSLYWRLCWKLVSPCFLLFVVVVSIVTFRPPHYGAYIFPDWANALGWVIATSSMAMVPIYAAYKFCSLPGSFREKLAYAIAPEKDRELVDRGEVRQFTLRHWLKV

Consider `CCN(CC)C(=O)C1(c2ccc(O)cc2)CC1CN` (racemic) [CS1814, racemic 2-Aminomethyl-1-(4-hydroxy-phenyl)-cyclopropanecarboxylic acid diethyl amide], for which the cytotoxicity result in [1] is “no cytotoxicity was observed”. Moreover, the “binding to other receptors” value in data set [2] was “generally does not bind well to other receptors”. Moreover, the Ki in data set [3] amounted to 218 nM; in data set [4], 6.73 nM. The IC50 in data set [3] (radioligand binding, FIG. 59, read-out: IC50 for inhibition of norepinephrine transporter) stood at 220 nM; in data set [4] (radioligand binding, FIG. 59, read-out: IC50 for inhibition of serotonin transporter) it was 12.7 nM; in data set [5], 28.6 nM; in data set [6], 21.7 nM. The “potency of inhibition of norepinephrine uptake compared to inhibition of serotonin uptake” value in data set [5] was “approximately equal potency”.
On to `CCN(CC)C(=O)[C@@]1(c2ccccc2)C[C@H]1CN` (racemic) [Milnacipran, milnacipran], for which, in [7], the “effect on the uptake of dopamine” value is listed as “does not affect the uptake of dopamine”. For the same compound, in data set [8], the “effect on the number of beta adrenoceptors in rat cortex” value is on record as “does not affect the number of beta adrenoceptors”. In addition, in data set [9], the “affinity for alpha or beta adrenergic, muscarinic, histaminergic, and dopaminergic receptors” value is “no affinity”.
As for `CCN(CC)C(=O)[C@@]1(c2ccc(O)cc2)C[C@H]1CN` [CS1713, 1S, 2R 2-Aminomethyl-1-(4-hydroxy-phenyl)-cyclopropanecarboxylic acid diethyl amide], the cytotoxicity entry in [1] was “no cytotoxicity was observed”. In addition, the Ki came to 112 nM in data set [3] and 3.88 nM in [4]. In addition, in [5], the “potency of inhibition of norepinephrine uptake compared to inhibition of serotonin uptake” value is listed as “approximately two-fold”. Further, the IC50 in data set [5] was 10.3 nM; in data set [6], 22 nM.
Regarding `CCN(CC)C(=O)[C@]1(c2ccc(O)cc2)C[C@@H]1CN.Cl` [CS1714, 1R, 2S 2-Aminomethyl-1-(4-hydroxy-phenyl)-cyclopropanecarboxylic acid diethyl amide], the cytotoxicity entry in data set [1] is given as “no cytotoxicity was observed”. The results for the Ki in data set [3] and in [4] were 1680 nM and 8.15 nM, respectively. In addition, the IC50 was found to be 88.5 nM in data set [5] and 40.3 nM in [6]. For the same compound, in data set [6], the “potency of inhibition of serotonin uptake compared to inhibition of norepinephrine uptake” value is reported as “approximately two-fold”.
Turning to `CCN(CC)C(=O)[C@@]1(c2ccccc2)C[C@H]1CN` [F2695, (+)-1S,2R-milnacipran], the “activity in inhibiting norepinephrine and serotonin reuptake compared with the racemic mixture” value in data set [10] is on record as “roughly twice”.
As to `CCN(CC)C(=O)[C@]1(c2ccccc2)C[C@@H]1CN` [F2696, (−)-1R,2S-milnacipran], the “activity in inhibiting norepinephrine and serotonin reuptake compared with the racemic mixture” value in data set [10] is “much less potent”.
With `COC(=O)[C@H]1[C@@H](c2ccc(I)cc2)C[C@@H]2CC[C@H]1N2C` [[^125I] RTI-55], the figures for the Kd in data set [11] and in data set [12] were 24 nM and 0.17 nM, respectively.

One may read the Ki as the dissociation constant of the complex between target and ligand, obtained from inhibition or displacement. What is called IC50 is the concentration at which inhibition is half-maximal. As a reminder, the Kd is the concentration at which binding is half-saturated.
